From US20090304692A1, “TRIAZINE COMPOUNDS AS PI3 KINASE AND MTOR INHIBITORS” (Wyeth, priority 2008, published 2009)
“And” between values parts separate entries of the source, which are not always exact repeats. Identical values can stand only once. Like-named read-outs stand apart in the source and are kept apart here.

What was measured:
[1] = biological target: PI3K-γ (Homo sapiens, UniProt P48736); assay: PI3K-gamma fluorescence polarization assay
[2] = biological target: PI3K-α (Homo sapiens, UniProt P42336); assay: PI3K-alpha fluorescence polarization assay; details: read-out: IC50 PI3Kα
Sequence of PI3K-α (P42336 whole entry, species assumed): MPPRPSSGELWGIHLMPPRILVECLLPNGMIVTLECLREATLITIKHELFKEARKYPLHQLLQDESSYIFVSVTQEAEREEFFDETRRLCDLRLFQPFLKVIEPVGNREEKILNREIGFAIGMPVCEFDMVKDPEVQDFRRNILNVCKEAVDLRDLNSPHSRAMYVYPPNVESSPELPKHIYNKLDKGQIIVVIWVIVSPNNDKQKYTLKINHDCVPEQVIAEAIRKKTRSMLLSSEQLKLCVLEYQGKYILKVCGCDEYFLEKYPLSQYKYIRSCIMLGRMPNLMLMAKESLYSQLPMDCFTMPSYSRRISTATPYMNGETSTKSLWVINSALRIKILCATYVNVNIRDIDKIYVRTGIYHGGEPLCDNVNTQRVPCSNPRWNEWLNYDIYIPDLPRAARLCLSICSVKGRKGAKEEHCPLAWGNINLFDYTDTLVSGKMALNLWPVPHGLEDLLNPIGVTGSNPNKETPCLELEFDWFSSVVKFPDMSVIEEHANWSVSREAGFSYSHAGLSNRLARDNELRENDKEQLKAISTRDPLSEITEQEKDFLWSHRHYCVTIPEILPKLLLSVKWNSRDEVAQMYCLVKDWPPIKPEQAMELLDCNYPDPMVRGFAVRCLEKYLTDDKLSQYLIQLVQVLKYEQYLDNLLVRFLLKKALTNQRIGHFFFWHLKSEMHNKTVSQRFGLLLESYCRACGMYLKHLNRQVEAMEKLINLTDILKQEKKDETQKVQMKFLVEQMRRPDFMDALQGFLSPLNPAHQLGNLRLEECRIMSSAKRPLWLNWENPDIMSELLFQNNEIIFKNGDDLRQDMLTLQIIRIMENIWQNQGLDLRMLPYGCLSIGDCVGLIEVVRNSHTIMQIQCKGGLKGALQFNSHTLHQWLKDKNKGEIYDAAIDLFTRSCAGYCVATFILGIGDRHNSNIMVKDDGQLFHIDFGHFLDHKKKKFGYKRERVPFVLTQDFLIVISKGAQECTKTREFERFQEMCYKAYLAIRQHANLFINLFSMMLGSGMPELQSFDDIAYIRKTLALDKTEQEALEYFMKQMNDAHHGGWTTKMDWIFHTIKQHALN
Sequence of PI3K-α (P27986 whole entry partner, species assumed): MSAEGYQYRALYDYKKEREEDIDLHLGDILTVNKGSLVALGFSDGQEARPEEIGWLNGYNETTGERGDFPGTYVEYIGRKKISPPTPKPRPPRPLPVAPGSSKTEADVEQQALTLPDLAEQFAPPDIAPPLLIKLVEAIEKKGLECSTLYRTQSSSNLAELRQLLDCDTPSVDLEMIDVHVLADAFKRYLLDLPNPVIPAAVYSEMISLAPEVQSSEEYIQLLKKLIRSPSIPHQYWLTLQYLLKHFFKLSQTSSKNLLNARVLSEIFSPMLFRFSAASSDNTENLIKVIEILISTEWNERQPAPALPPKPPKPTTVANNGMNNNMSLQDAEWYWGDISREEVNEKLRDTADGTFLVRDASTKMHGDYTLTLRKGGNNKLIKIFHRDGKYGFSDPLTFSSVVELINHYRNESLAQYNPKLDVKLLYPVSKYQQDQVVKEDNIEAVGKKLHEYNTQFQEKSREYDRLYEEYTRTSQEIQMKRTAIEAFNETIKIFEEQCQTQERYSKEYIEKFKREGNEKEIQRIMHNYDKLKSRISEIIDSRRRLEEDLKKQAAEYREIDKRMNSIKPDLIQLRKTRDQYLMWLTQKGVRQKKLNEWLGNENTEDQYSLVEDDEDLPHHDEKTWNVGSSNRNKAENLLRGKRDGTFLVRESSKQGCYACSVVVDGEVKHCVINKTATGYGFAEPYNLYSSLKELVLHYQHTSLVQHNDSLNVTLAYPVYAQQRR

[3] = biological target: Human mTOR (FLAG-TOR) (Homo sapiens, UniProt P42345); assay: mTOR kinase assay (DELFIA format, purified enzyme); type: biochemical; details: read-out: IC50 mTOR
Sequence of Human mTOR (FLAG-TOR) (P42345 1360-2549 limits assumed): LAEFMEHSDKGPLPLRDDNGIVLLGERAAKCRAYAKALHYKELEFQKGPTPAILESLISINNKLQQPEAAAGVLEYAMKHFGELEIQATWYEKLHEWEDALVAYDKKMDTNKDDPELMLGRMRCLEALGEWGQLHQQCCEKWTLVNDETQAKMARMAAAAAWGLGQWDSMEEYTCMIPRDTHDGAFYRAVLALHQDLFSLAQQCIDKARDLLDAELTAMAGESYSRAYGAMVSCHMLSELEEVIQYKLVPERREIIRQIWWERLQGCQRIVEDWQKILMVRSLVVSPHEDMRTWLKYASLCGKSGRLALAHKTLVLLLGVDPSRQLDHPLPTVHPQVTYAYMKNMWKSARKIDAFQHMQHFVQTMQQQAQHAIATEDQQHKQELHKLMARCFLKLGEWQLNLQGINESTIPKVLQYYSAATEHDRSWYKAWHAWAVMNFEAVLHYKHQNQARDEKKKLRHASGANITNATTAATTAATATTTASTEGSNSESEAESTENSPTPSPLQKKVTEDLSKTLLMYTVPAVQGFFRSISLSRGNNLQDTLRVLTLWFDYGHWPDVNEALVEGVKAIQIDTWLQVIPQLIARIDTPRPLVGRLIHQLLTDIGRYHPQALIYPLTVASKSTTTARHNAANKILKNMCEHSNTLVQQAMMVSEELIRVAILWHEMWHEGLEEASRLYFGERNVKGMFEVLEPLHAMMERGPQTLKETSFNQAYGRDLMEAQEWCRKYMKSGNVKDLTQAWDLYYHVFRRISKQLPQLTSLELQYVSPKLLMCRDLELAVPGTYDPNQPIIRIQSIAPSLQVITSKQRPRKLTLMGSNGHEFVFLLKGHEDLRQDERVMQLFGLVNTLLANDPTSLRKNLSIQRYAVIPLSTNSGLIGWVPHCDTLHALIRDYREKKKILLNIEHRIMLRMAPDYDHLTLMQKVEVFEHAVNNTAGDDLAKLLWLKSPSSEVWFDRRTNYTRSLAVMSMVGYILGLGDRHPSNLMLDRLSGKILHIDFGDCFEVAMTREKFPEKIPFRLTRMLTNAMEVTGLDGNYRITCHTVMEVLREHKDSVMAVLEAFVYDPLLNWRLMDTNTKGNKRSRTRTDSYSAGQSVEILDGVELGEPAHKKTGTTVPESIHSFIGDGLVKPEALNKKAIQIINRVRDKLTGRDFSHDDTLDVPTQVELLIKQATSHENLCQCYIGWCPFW

[4] = system: human breast MDA-MB-361 tumor cell line; assay: In vitro cell culture growth assay (MTS), MDA-MB-361; type: cell-based; details: Homo sapiens, MDA-MB-361, 72 h; MTS cell growth assay, three days after drug treatment; read-out: IC50 MDA-MB-361
[5] = system: human prostate PC3-mm2 tumor cell line; assay: In vitro cell culture growth assay (MTS), PC3-mm2; type: cell-based; details: Homo sapiens, PC3MM2, 72 h, MTS cell growth assay, three days after drug treatment, read-out: IC50 PC3-mm2
[6] = system: human prostate LNCap tumor cell line; assay: In vitro cell culture growth assay (MTS), LNCap; details: Homo sapiens, LNCaP, 72 h, read-out: IC50 LNCap

Sequence of PI3K-γ (P48736 whole entry, species assumed): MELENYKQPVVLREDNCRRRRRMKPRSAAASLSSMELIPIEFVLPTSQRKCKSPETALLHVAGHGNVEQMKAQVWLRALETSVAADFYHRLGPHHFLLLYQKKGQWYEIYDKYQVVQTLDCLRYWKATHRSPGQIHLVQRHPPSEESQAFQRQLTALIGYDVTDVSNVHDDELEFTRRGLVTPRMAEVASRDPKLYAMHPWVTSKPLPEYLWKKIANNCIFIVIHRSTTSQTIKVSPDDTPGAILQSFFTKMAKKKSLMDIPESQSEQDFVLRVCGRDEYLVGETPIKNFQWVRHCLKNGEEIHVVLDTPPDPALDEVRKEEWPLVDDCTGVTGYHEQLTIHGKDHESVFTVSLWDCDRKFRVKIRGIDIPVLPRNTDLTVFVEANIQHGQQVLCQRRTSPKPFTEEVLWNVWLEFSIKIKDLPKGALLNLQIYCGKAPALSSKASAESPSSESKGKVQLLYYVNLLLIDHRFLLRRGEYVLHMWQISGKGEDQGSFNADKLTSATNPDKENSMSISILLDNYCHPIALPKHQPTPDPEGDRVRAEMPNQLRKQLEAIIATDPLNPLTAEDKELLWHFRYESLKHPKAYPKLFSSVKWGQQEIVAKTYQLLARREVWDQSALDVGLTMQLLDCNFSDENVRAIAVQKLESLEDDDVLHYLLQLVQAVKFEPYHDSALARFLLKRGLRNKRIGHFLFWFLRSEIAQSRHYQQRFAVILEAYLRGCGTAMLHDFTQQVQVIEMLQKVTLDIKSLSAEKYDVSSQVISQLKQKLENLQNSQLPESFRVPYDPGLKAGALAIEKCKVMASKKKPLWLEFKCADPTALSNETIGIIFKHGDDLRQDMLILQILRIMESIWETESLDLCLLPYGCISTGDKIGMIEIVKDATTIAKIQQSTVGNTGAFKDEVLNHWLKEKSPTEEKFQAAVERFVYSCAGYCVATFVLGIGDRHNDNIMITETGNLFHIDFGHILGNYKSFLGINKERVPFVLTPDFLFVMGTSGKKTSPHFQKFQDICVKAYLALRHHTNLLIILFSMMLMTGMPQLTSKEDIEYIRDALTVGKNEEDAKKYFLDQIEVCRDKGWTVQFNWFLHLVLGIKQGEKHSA

Row | Structure (SMILES) | IC50 ([1]; read-out: IC50 PI3Kγ) | IC50 [2] | IC50 [3] | IC50 [4] | IC50 [5] | IC50 [6] | IC50 ([1]; read-out: IC50 PI3Kγ, listed as 728) | IC50 ([2]; listed as 728) | IC50 ([5]; PC3-mm2 cells) | IC50 [1]
1 | O=C(Nc1ccncc1)Nc1ccc(-c2nc(C3CCOCC3)nc(N3CCOCC3)n2)cc1 [Example 101, 1-{4-[4-Morpholin-4-yl-6-(tetrahydro-pyran-4-yl)-[1,3,5]triazin-2-yl]-phenyl}-3-pyridin-4-yl-urea] | 33 nM | 6 nM | 0.44 nM | 32.7 nM | 37.3 nM | 3 nM | – | – | – | –
2 | O=C(Nc1ccncc1)Nc1ccc(-c2nc(N3CCOCC3)nc(N3C(CO)CCC3CO)n2)cc1 (stereo not shown) [Example 268, 1-(4-{4-[2,5-bis(hydroxymethyl)pyrrolidin-1-yl]-6-morpholin-4-yl-1,3,5-triazin-2-yl}phenyl)-3-pyridin-4-ylurea] | 41 nM | 12 nM | 0.39 nM and 0.38 nM | 59 nM | 107 nM | 38 nM | 47 nM | 10.5 nM | 107 nM | –
3 | C[C@@H]1COCCN1c1nc(-c2ccc(NC(=O)Nc3ccc(N4CCN(C5CC5)CC4)cc3)cc2)nc(N2C3CCC2COC3)n1 [Example 442, 1-(4-(4-(3-oxa-8-azabicyclo[3.2.1]octan-8-yl)-6-((R)-3-methylmorpholino)-1,3,5-triazin-2-yl)phenyl)-3-(4-(4-cyclopropylpiperazin-1-yl)phenyl)urea] | – | 1760 nM | 1.5 nM | – | – | 13 nM | – | – | – | > 10000 nM
4 | C[C@@H]1COCCN1c1nc(-c2ccc(NC(=O)Nc3ccc(N4CCN(C)CC4)nc3)cc2)nc(N2C3CCC2COC3)n1 [Example 446, 1-(4-(4-(3-oxa-8-azabicyclo[3.2.1]octan-8-yl)-6-((R)-3-methylmorpholino)-1,3,5-triazin-2-yl)phenyl)-3-(6-(4-methylpiperazin-1-yl)pyridin-3-yl)urea] | 4010 nM | 835 nM | 0.82 nM | – | – | 15 nM | – | – | – | –
5 | CCN1CCN(c2ccc(NC(=O)Nc3ccc(-c4nc(N5CCOC[C@H]5C)nc(N5CCOC[C@H]5C)n4)cc3)cc2)CC1 [Example 447, 1-(4-(4,6-bis((R)-3-methylmorpholino)-1,3,5-triazin-2-yl)phenyl)-3-(4-(4-ethylpiperazin-1-yl)phenyl)urea] | 2800 nM | 390 nM | 1.9 nM | – | – | 8 nM | – | – | – | –
6 | NC(=O)c1ccc(NC(=O)Nc2ccc(-c3nc(C4CCOCC4)nc(N4C5CCC4COC5)n3)cc2)cc1 [Example 454, 4-(3-(4-(4-(3-oxa-8-azabicyclo[3.2.1]octan-8-yl)-6-(tetrahydro-2H-pyran-4-yl)-1,3,5-triazin-2-yl)phenyl)ureido)benzamide] | 1490 nM | 278 nM | 0.2 nM | – | – | < 0.8 nM | – | – | – | –
7 | CN(C)C(=O)c1ccc(NC(=O)Nc2ccc(-c3nc(C4CCOCC4)nc(N4C5CCC4COC5)n3)cc2)cc1 [Example 455, 4-(3-(4-(4-(3-oxa-8-azabicyclo[3.2.1]octan-8-yl)-6-(tetrahydro-2H-pyran-4-yl)-1,3,5-triazin-2-yl)phenyl)ureido)-N,N-dimethylbenzamide] | 1390 nM | 113 nM | 0.3 nM | – | – | < 0.8 nM | – | – | – | –
8 | O=C(Nc1ccc(C(=O)N2CCCC2)cc1)Nc1ccc(-c2nc(C3CCOCC3)nc(N3C4CCC3COC4)n2)cc1 [Example 456, 1-(4-(4-(3-oxa-8-azabicyclo[3.2.1]octan-8-yl)-6-(tetrahydro-2H-pyran-4-yl)-1,3,5-triazin-2-yl)phenyl)-3-(4-(pyrrolidine-1-carbonyl)phenyl)urea] | 1550 nM | 150 nM | 0.7 nM | – | – | < 0.8 nM | – | – | – | –
9 | CNCCNC(=O)c1ccc(NC(=O)Nc2ccc(-c3nc(C4CCOCC4)nc(N4C5CCC4COC5)n3)cc2)cc1 [Example 458, 4-(3-(4-(4-(3-oxa-8-azabicyclo[3.2.1]octan-8-yl)-6-(tetrahydro-2H-pyran-4-yl)-1,3,5-triazin-2-yl)phenyl)ureido)-N-(2-(methylamino)ethyl)benzamide] | 512 nM | 33 nM | 0.2 nM | – | – | 8 nM | – | – | – | –
10 | CN(C)CCN(C)C(=O)c1ccc(NC(=O)Nc2ccc(-c3nc(C4CCOCC4)nc(N4C5CCC4COC5)n3)cc2)cc1 [Example 459, 4-(3-(4-(4-(3-oxa-8-azabicyclo[3.2.1]octan-8-yl)-6-(tetrahydro-2H-pyran-4-yl)-1,3,5-triazin-2-yl)phenyl)ureido)-N-(2-(dimethylamino)ethyl)-N-methylbenzamide] | 483 nM | 26 nM | 0.3 nM | – | – | < 0.8 nM | – | – | – | –
11 | O=C(Nc1ccc(C(=O)N2CCOCC2)cc1)Nc1ccc(-c2nc(C3CCOCC3)nc(N3C4CCC3COC4)n2)cc1 [Example 460, 1-(4-(4-(3-oxa-8-azabicyclo[3.2.1]octan-8-yl)-6-(tetrahydro-2H-pyran-4-yl)-1,3,5-triazin-2-yl)phenyl)-3-(4-(morpholine-4-carbonyl)phenyl)urea] | 1080 nM | 143 nM | 0.4 nM | – | – | < 0.8 nM | – | – | – | –
12 | NCCNc1ccc(NC(=O)Nc2ccc(-c3nc(N4C5CCC4COC5)nc(N4C5CCC4COC5)n3)cc2)cc1 [Example 461, 1-(4-(2-aminoethylamino)phenyl)-3-(4-(4,6-di(3-oxa-8-azabicyclo[3.2.1]octan-8-yl)-1,3,5-triazin-2-yl)phenyl)urea] | 4420 nM | 482 nM | 1.1 nM | – | – | 68 nM | – | – | – | –

Second part, led by results:

Row | IC50 ([1]; read-out: IC50 PI3Kγ) | IC50 [2] | IC50 [3] | IC50 [4] | IC50 [5] | IC50 [6] | IC50 ([1]; read-out: IC50 PI3Kγ, listed as 728) | IC50 ([2]; listed as 728) | IC50 ([5]; PC3-mm2 cells) | Structure (SMILES) | IC50 [1]
13 | – | 519 nM | 2.3 nM | – | – | 18 nM | – | – | – | CC(C)N1CCN(c2ccc(NC(=O)Nc3ccc(-c4nc(N5CCOC[C@H]5C)nc(N5CCOC[C@H]5C)n4)cc3)cc2)CC1 [Example 448, 1-(4-(4,6-bis((R)-3-methylmorpholino)-1,3,5-triazin-2-yl)phenyl)-3-(4-(4-isopropylpiperazin-1-yl)phenyl)urea] | > 10000 nM
14 | 888 nM | 76 nM | 1.7 nM | – | – | < 0.8 nM | – | – | – | C[C@@H]1COCCN1c1nc(-c2ccc(NC(=O)Nc3ccc(C(=O)N4CCN(C)CC4)cc3)cc2)nc(N2CCOC[C@H]2C)n1 [Example 450, 1-(4-(4,6-bis((R)-3-methylmorpholino)-1,3,5-triazin-2-yl)phenyl)-3-(4-(4-methylpiperazine-1-carbonyl)phenyl)urea] | –
15 | 702 nM | 85 nM | 1.4 nM | – | – | < 0.8 nM | – | – | – | CC(C)N1CCN(C(=O)c2ccc(NC(=O)Nc3ccc(-c4nc(N5CCOC[C@H]5C)nc(N5CCOC[C@H]5C)n4)cc3)cc2)CC1 [Example 451, 1-(4-(4,6-bis((R)-3-methylmorpholino)-1,3,5-triazin-2-yl)phenyl)-3-(4-(4-isopropylpiperazine-1-carbonyl)phenyl)urea] | –
16 | 502 nM | 41 nM | 0.55 nM | – | – | < 0.8 nM | – | – | – | C[C@@H]1COCCN1c1nc(-c2ccc(NC(=O)Nc3ccc(C(=O)N(C)C)cc3)cc2)nc(N2CCOC[C@H]2C)n1 [Example 452, 4-(3-(4-(4,6-bis((R)-3-methylmorpholino)-1,3,5-triazin-2-yl)phenyl)ureido)-N,N-dimethylbenzamide] | –
17 | 4270 nM | 659 nM | 3.3 nM | – | – | 30 nM | – | – | – | C[C@@H]1COCCN1c1nc(-c2ccc(NC(=O)Nc3ccc(CN4CCCC4)cc3)cc2)nc(N2CCOC[C@H]2C)n1 [Example 453, 1-(4-(4,6-bis((R)-3-methylmorpholino)-1,3,5-triazin-2-yl)phenyl)-3-(4-(pyrrolidin-1-ylmethyl)phenyl)urea] | –
18 | 9040 nM | 3670 nM | 2.2 nM | – | – | 4300 nM | – | – | – | CC(C)c1nc(-c2ccc(NC(=O)Nc3ccc(-c4ccncc4)cc3)cc2)nc(N2CCOCC2)n1 [Example 489, 1-{4-[4-(1-methylethyl)-6-morpholin-4-yl-1,3,5-triazin-2-yl]phenyl}-3-(4-pyridin-4-ylphenyl)urea] | –
19 | 662 nM | 11.5 nM | 0.45 nM | – | – | < 0.8 nM | – | – | – | CN1CCN(CC(=O)Nc2ccc(NC(=O)Nc3ccc(-c4nc(N5CC6CCC(C5)O6)nc(N5CC6CCC(C5)O6)n4)cc3)cc2)CC1 [Example 509, N-[4-({[4-(4,6-di-8-oxa-3-azabicyclo[3.2.1]oct-3-yl-1,3,5-triazin-2-yl)phenyl]carbamoyl}amino)phenyl]-2-(4-methylpiperazin-1-yl)acetamide] | –
20 | 1080 nM | 102 nM | 0.405 nM | – | – | 60 nM | – | – | – | O=C(Nc1ccncc1)Nc1ccc(-c2nc(N3CC4CCC(C3)O4)nc(N3[C@H](CO)CC[C@@H]3CO)n2)cc1 [Example 667, 1-(4-{4-[(2R,5S)-2,5-bis(hydroxymethyl)pyrrolidin-1-yl]-6-(8-oxa-3-azabicyclo[3.2.1]oct-3-yl)-1,3,5-triazin-2-yl}phenyl)-3-pyridin-4-ylurea] | –
21 | 625 nM | 122 nM | 0.56 nM | – | – | 0.8 nM | – | – | – | CN1CCN(c2ccc(NC(=O)Nc3ccc(-c4nc(N5CC6CCC(C5)O6)nc(N5[C@H](CO)CC[C@@H]5CO)n4)cc3)cc2)CC1 [Example 668, 1-(4-{4-[(2R,5S)-2,5-bis(hydroxymethyl)pyrrolidin-1-yl]-6-(8-oxa-3-azabicyclo[3.2.1]oct-3-yl)-1,3,5-triazin-2-yl}phenyl)-3-[4-(4-methylpiperazin-1-yl)phenyl]urea] | –
